This test relates to DNA crosslinks in mouse bone marrow cells. In words: Detection of SJG-136-click in mouse bone marrow by confocal microscopy (click labelling of DNA crosslinks). The test is classed as in vivo. To be noted: mice treated 0.3 mg/kg, 45 minutes; for click-647 (Alexa Fluor 647 azide) signal observed by confocal imaging: sites of reticulation (DNA crosslinks): 10 μm bone marrow sections of femur/tibia, click-it solution with Alexa Fluor 647 azide, FIG. 1 middle column. On the procedure: FIG. 1 represents confocal microscopy observations of samples of mice bone marrow in mouse femur tissues treated with 0.3 mg·kg^−1 of either SJG136 (top line of images) (corresponding to a compound outside of the invention) or SJG136-click (bottom line of images) (corresponding to the compound of formula (IV) according to the invention). The nucleus of the sample's cells are identified on the left column by DAPI staining. The middle column represents images obtained by exposing clickable 647 fluorophore (Alexa Fluor™ 647 azide, sold by the company Thermo Fisher) to the samples treated with SJG136 or SJG136-click to detect the SJG136 or SJG136-click. On the right column, observations from the left and middle column are merged. Some of the observable DNA crosslinking are indicated by white arrows in the middle and right cases of the bottom line.
Mice were treated with a compound of formula (IV) according to the invention (0,3 mg/kg) during 45 minutes.
The bone(s) (i.e. femur and tibia) were dissected from the mouse and surrounding muscle(s) were removed. Said bone(s) were immediately fixed with 4% ice-cold PFA solution for 24 hours at 4° C. in a 15 mL conical tube. The bone sample(s) were then washed three times with PBS. Each wash was carried out for 5 minutes at 4° C. with 7 mL of PBS under constant agitation.
A DCAL solution, containing 0.5 M of EDTA, was prepared by dissolving 186.1 g of EDTA in 800 mL of ddH2O with the addition of about 20 g of NaOH pellets to bring the mixture to a pH in the range of 7.4-7.6 by continuous stirring. The volume is adjusted to 1 L and the solution is filtered on a 0.5 μm filter.
A cryoprotectant (CPT) solution (1×) was also prepared by dissolving 200 g of sucrose and 20 g of polyvinylpyrrolidone (PVP) in 700 mL of PBS under constant stirring by a magnetic stirrer. The volume was then adjusted to 1 L and the solution was mixed until a homogeneous solution was obtained. […]

From patent US20240124938A1, “VISUAL DETECTION OF PBD INDUCED DNA CROSSLINKS” (INSERM (INSTITUT NATIONAL DE LA SANTÉ ET DE LA RECHERCHE …, priority 2019, published 2024) come the findings set out here.

For the compound `C=C1C[C@H]2C=Nc3cc(OCCCOc4cc5c(cc4OC)C(=O)N4CC(=C)C[C@H]4C=N5)c(OC)cc3C(=O)N2C1` [SJG136, reference compound], the “click-647 (Alexa Fluor 647 azide) signal observed by confocal imaging: sites of reticulation (DNA crosslinks)” value is “nothing is visible”.

Regarding `C#CCC(COc1cc2c(cc1OC)C(=O)N1CC(=C)CC1C=N2)COc1cc2c(cc1OC)C(=O)N1CC(=C)CC1C=N2` (stereo not drawn) [SJG136-click, 8,8′-((2-(prop-2-yn-1-yl)propane-1,3-diyl)bis(oxy))bis(7-methoxy-2-methylene-2,3-dihydro-1H-benzo[e]pyrrolo[1,2-a][1,4]diazepin-5(11aH)-one)], the “click-647 (Alexa Fluor 647 azide) signal observed by confocal imaging: sites of reticulation (DNA crosslinks)” value was “several light spots, clearly distinct one from the others”. Besides, the “localisation of click-647 light spots relative to DAPI-stained nuclei (merged image)” value (bone marrow sections, merge of DAPI and click-647 images, FIG. 1 right column) was “all the light spots observed are within the nucleus of cells”.
